Data taken from patent US9518004B2, “Reduced coenzyme Q10 derivative and method for production thereof” (KANEKA CORPORATION, priority 2012, dated 2016).

Assay: Oral absorbability in rats: overall coenzyme Q10 concentration in plasma by HPLC after oral administration (AUC)
Set-up: species or system Spregue-Dawley rats
Conditions: rat, in vivo, 57.8 umol/kg
Description: (§1) To seven-weeks old male Spregue-Dawley rats (obtained from Japan SLC, Inc.) were orally administered the derivatives of reduced coenzyme Q10 obtained in Examples 3, 4 and 5 and the starting reduced coenzyme Q10 as control each in 57.8 μmol/kg (50 mg/kg in terms of reduced coenzyme Q10). Blood was extracted from each rat after 1, 2, 4, 8 and 24 hours after administration of each sample. Each extracted blood was centrifuged, so that plasma was obtained. Then, oxidation treatment of reduced coenzyme Q10 in the plasma and extraction treatment of oxidized coenzyme Q10 were performed, and then the overall coenzyme Q10 concentration in the plasma was measured as oxidized coenzyme Q10 by using HPLC.
as §1, with “derivative” for “derivatives”, “Referential Example 1” for “Examples 3, 4 and 5”

## COc1c(OC(C)=O)c(C)c(CC=C(C)CCC=C(C)CCC=C(C)CCC=C(C)CCC=C(C)CCC=C(C)CCC=C(C)CCC=C(C)CCC=C(C)CCC=C(C)C)c(OC(C)=O)c1OC [Bisacetyl derivative, Bisacetyl Derivative]
  AUC (area under the blood concentration-time curve) as compared with reduced coenzyme Q10, in words: lower
